The values that follow come from patent US20240307363A1, “METHODS FOR TREATING A PULMONARY DISEASE WITH AN ALK-5 (TGF BETA R1) INHIBITOR” (Thirona Bio, Inc., priority 2021, published 2024).

Read-outs that look alike come from different tables or passages of the source.

Series [1] concerns bleomycin-induced lung fibrosis. The series can be described thus: Efficacy study in bleomycin lung fibrosis model. In kind it is in vivo. To be noted: mice. The procedure: Compound 3 may be used to prevent and reverse lung fibrosis and improve lung function and exercise capacity. Male C57BL6/J mice (7-9 weeks old) from the Jackson Laboratory (Bar Harbor, ME), are used for efficacy studies. […] Bleomycin (1-5 U/kg) in […] is intratracheally sprayed into mice lightly anaesthetized with isoflurane (5% in 100%02). Control animals receives […] of 0.9% saline. […] Animals are treated until the end of the study (day 21 post-bleomycin administration). Lung Function and Exercise Capacity: Invasive lung function measurements are taken at specified time points following bleomycin. Mice are anesthetized with 2.5 mg sodium pentobarbital (Abbott Labs, IL), and the trachea cannulated. Animals are mechanically ventilated using a computer-controlled piston ventilator (flexiVent, SCIREQ Inc., Montreal, Canada: tidal volume=10 ml/kg, respiratory rate of 150 breaths/min, 3 cmH2O positive end-expiratory pressure). To test exercise capacity animals are placed on a treadmill at a 5% incline at a speed to 10 m/minute and the speed increased 1 m/minute every 4 minutes of the test until exhausted. Baseline exercise capacity for each mouse is assessed 2 days prior to either saline or bleomycin administration and then once weekly after administration at days 6, 12, and 19 post-instillation. Bronchoalveolar Lavage Cell Assessment: Immediately following lung function measurements, mice are exsanguinated, bronchoalveolar lavage fluid (BALF) is collected, and total and differential cell counts are performed. […] Samples are mixed and centrifuged before injection for LC/MS/MS analysis. LC/MS/MS analysis is conducted by gradient HPLC with selective reaction monitoring (SRM). The calibration range was 40-2,000 ng/ml. The LC/MS/MS system used for the analysis consisted of an AB-Sciex API4000 with an electrospray source connected to an Agilent 1200 pump, a Waters 2777 autosampler, and an Agilent 1100 series column oven. Chromatographic analysis is conducted by HILIC HPLC with an Ascentis Express HILIC ([…], 2.7 um) column. The SRM transition is m/z 132 to m/z 41. Histology: After performing lung function measurements, whole lungs (that are not subject to bronchoalveolar lavage) are inflated under 25 cm H2O pressure with 10% neutral buffered formalin through the tracheal cannula and immersed in formalin for at least 24 h. After being processed into paraffin blocks, the lungs are sectioned ([…]) and stained with either hematoxylin and cosin (H&E) or immunolabeled with an anti-collagen I antibody (rabbit polyclonal, Genetex Inc., Irvine, CA), to assess fibrotic changes in the lungs. To determine the fibrosis histopathology score for the lung of each mouse, the entire left and right longitudinal lung sections (at the level of tracheal bifurcation) are scored separately at 100× magnification and the scores were combined (total score range 0-8). Grading criteria are as follows: Grade 0=no apparent fibrosis; Grade 1=minimal fibrosis with rare foci of mostly interstitial alveolar septal fibrosis affecting less than 5% of the entire lung section; Grade 2=mild fibrosis characterized by multiple foci with thickening of alveolar septa by fibrosis and progressing to regions with fibrous deposition within the alveolar spaces with some damage to the alveoli, affecting 5-25% of the entire lung section; Grade 3=moderate fibrosis with multiple or single coalescing large areas of fibrosis effacing the alveoli with definitive damage to pulmonary architecture, affecting 25-50% of the entire lung section; Grade 4=marked fibrosis with severe distortion of pulmonary parenchyma by large contiguous fibrous areas, affecting 50-75% of the entire lung section. For collagen I IHC quantification, glass slides are scanned at 20× using a Zeiss Mirax scanner (Carl Zeiss Microimaging. Thornwood, NY), and digital slides generated were analyzed using Definiens Tissue Studio software (Definiens, Munich, Germany). […]

A short description of series [2]: Intrinsic clearance in human liver microsomes. In kind it is in vitro ADME. To be noted: pH 7.4, 0.1 μM test compound, 0.1 mg/mL protein, 1 mM NADPH. The procedure:
Assay methods that evaluate the intrinsic clearance (CLINT) in human liver microsomes (HLMs) have been described in the art (Drug Metab. Dispos., (2005), 33(9), 1304-1311 BMC Pulmonary Medicine (2018), 18(63), 1-13). Representative compounds are tested as follows for their intrinsic clearance (CLINT) in human liver microsomes as follows.
A […] microsomal incubation cofactor solution was prepared with 100 mM potassium phosphate buffered to pH 7.4 (BD Biosciences, Woburn, Mass.) supplemented with 2 mM NADPH (Sigma-Aldrich, St. Louis, Mo.). 10 mM DMSO stocks of test compound are diluted and spiked into the cofactor solution to yield a 0.2 μM concentration (0.02% v/v DMSO). Aliquots of frozen human liver microsomes (Bioreclamation IVT, Baltimore Md.) are thawed and diluted into 100 mM potassium phosphate buffer to yield microsomal protein concentrations of 0.2 mg/mL. Cofactor/drug and microsomal solutions are pre-warmed separately for 4 minutes in a water bath held at 37° C. Incubations (n=1) are started by the combination of equal volumes of cofactor/drug solution with microsomal solution. The final concentration of test compound is 0.1 μM with a final […] protein concentration of 0.1 mg/mL and final NADPH concentration of 1 mM. […] Samples are then injected onto an AB Sciex API 4000 triple quadrupole mass spectrometer for quantitation by LC-MS/MS. […]

Series [3] has as its system luc-CT26 tumor outgrowth in the lungs. The experiment in a line: Efficacy study in a syngeneic lung cancer model (luc-CT26 cells i.v., lung bioluminescence). Format: in vivo. To be noted: BALB/c mice. The procedure: Compound 3 may be used to suppress tumor growth in the lungs of a syngeneic cancer model when administered alone or in combination with an immunotherapeutic agent. Six- to eight-week old BALB/c mice are used for in vivo efficacy studies in accordance with IACUC guidelines. Firefly luciferase-expressing CT-26 mouse colon carcinoma cells (luc-CT26, CSC-RR0237, Creative Biogene, Shirley, NY, USA) are grown at 37° C. in a 5% CO2 humidified atmosphere in Dulbecco's Modified Eagle's Medium (D6429, Dominique Dutscher, Brumath, France) supplemented with 10% foetal bovine serum (500105NIDD, Dominique Dutscher), 0.2% glucose (19002-013, Gibco, Thermo Fisher Scientific, Hampton, NH, USA), 2 mM L-[…], Dominique Dutscher), 100 U/ml penicillin and 100 μg/ml streptomycin (15140155, Gibco, Thermo Fisher Scientific). Cell suspensions are prepared by enzymatic treatment with trypsin-EDTA (11560626, Thermo Fisher Scientific). Luc-CT26 cells (2×10^5 cells/mouse) are injected intravenously into BALB/c mice to generate the cancer model in which tumor outgrowth in the lungs is observed. Following injection of CT26 cells and starting on day 6, the mice are monitored 3 times a week (i.e., day 6, day 8, day 11, day 13, etc.) using an IVIS spectrum imaging system (Caliper, PerkinElmer) after ip injection of D-luciferin. […] Body weight is measured twice weekly.

Series [4] deals with ALK5 (Homo sapiens (Human), UniProt P36897). The series can be described thus: In vitro screen for ALK5 kinase inhibition (ALK5 phosphorylation of α-Casein, filter-plate radiometric). In kind it is biochemical. To be noted: ALK5 protein 2 nM final, α-Casein substrate; mean of two or more IC50 values.
Description: Representative compounds are tested as follows for inhibition of ALK5 autophosphorylation activity and of the ALK5 phosphorylation of α-Casein.
Representative compounds are screened using the assay procedure for ALK5 kinase activity as described below.
In a 96 well filter-bottom plate (Millipore, #MSDV N6B 50), 58 μL Assay Buffer is added to reach well. Add 10 μL of Cold ATP mix in Assay Buffer, then 10 μL of a 1:10 dilution of α-Casein stock. Then add 2 μL of compound being tested (DMSO) at a 50× final concentration. Hot ATP mix (10 μL) is added, and the reaction is started with the addition of 10 μL of a 1:350 dilution of the ALK5 protein (2 nM final) in Assay Buffer with 0.05% BSA (Bovine Serum Albumin). […] The reaction is then stopped with the addition of 100 μL of ice-cold 20% TCA (trichloroacetic acid). The assay is then incubated for at least 1 hour at 4° C., and then the contents of each well are filtered by suction through the filter. The wells are washed three times with 200 μL ice-cold 10% TCA. The plate bottom is blotted before and after removing plastic sub-base, and dried overnight at room temperature. Add 30 μL of scintillation fluid, and count 1 minute per well on a Wallac Tri-Lux scintillation counter.
The conditions of series [5]: dogs, chronic (>3 months) administration; cited from earlier work.
For series [6] the following is noted: rats, chronic (>3 months) administration; cited from earlier work.
The conditions of series [7]: rats; cited from earlier work.
Series [8] concerns heart valves. To be noted: preclinical animal model; all heart valves at all doses tested; cited from earlier work.
Series [9] relates to bleomycin model. To be noted: cited from earlier work.
For series [10], the system named is bleomycin-induced pulmonary fibrosis. To be noted: bleomycin-challenged rats, cited from earlier work.
The conditions of series [11]: cited from earlier work.
For series [12] the following is noted: cynomolgus monkey, in vivo; cited from earlier work.

Sequence of ALK5 (P36897 34-503, species assumed): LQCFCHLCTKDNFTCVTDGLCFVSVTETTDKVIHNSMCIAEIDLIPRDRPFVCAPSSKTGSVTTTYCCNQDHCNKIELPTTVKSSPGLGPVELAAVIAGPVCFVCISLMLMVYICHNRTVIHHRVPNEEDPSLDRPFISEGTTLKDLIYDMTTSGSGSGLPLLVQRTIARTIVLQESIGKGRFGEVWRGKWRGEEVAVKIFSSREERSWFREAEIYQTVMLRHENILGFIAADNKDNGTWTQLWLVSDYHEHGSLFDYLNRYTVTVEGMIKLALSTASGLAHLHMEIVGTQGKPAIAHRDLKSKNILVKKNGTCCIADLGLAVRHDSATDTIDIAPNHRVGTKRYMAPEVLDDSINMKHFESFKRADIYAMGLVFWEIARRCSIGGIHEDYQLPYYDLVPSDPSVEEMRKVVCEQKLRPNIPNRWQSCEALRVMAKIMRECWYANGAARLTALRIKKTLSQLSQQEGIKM

What is called CLint scaled is the capacity of the preparation to metabolise the compound, expressed as a volume cleared per time. In the case of `Cc1cccc(-n2ncc(C)c2-c2cc3cnccc3s2)n1` [Compound 3, 2-[4-methyl-1-(6-methylpyridin-2-yl)-1H-pyrazol-5-yl]thieno[3,2-c]pyridine], the HP content result in series [1] (4-hydroxyproline, intranasal) is “significant reduced”. Also, in series [1] (dosed intranasally, prophylactic or therapeutic, until day 21), the bleomycin-induced lung fibrosis result is given as “prevents and/or reverses”. For the same compound, in series [1] (intranasal), the “collagen 1 assessed by IHC” value was “reduced”, the “fibrosis histopathology scores in the lung” value is listed as “improvements” and the lung function result was “significantly improved”. Also, in series [1] (intranasal, treadmill), the exercise capacity entry is given as “increased”. Also, the intrinsic clearance (CLint scaled) at 0.1 μM in [2] is 199 mL/min/kg. The “bioluminescence intensity (BLI) in the lungs” value in series [3] (Compound 3 alone, intranasal) is on record as “Statistically significant reduction”. Moreover, in series [3] (combination with an immunotherapeutic agent), the “efficacy as measured by reduction in BLI” value is “increased efficacy”.
By IC50 is commonly meant the point on the concentration scale where inhibition reaches its midpoint. A lower IC50 goes with greater potency in that assay. Regarding `CCc1cnn(-c2cccc(C)n2)c1-c1cc2cnccc2s1` [Compound 7], the IC50 in [4] is 4.33 nM.
As for `Cc1cccc(-c2nn3c(c2-c2ccnc4ccc(C(N)=O)cc24)CCC3)n1` [Compound 41, galunisertib], the organ toxicities result in series [5] and in series [6] was “caused multiple organ toxicities” in each case.
As to `O=C(NC1CCOCC1)c1ccc(-c2cc(-c3c[nH]nc3-c3ccccn3)ccn2)cc1` [Compound 46], the physeal dysplasia entry in [7] is on record as “induced physeal dysplasia”.
With `c1ccc(-c2nc3c(c(-n4ccc5cnccc54)n2)CCC3)nc1` [Compound 47], the heart valve lesions result in series [8] is reported as “induced heart valve lesions”.
Take `Cc1ccc(Oc2ccnc(Nc3ccc(S(N)(=O)=O)cc3)c2)c(C)n1` [Compound 48]: in series [8], the heart valve lesions entry was “induced heart valve lesions”.
Take `Cc1cccc(-c2[nH]ncc2-c2ccc(F)c(-c3cnn(CCO)c3)c2)n1` [Compound R-268712]: in [9], the antifibrotic efficacy entry is recorded as “strong antifibrotic efficacy”.
On to `Cc1cccc(-c2[nH]c(C(C)(C)C)nc2-c2ccc3nccnc3c2)n1` [SB-525334], for which the “parameters of lung function” value in [10] (after onset of fibrosis, vs vehicle-treated controls) was “significant dose-dependent improvements”. In addition, in series [10], the pulmonary pathology result is on record as “significant reduction”.
In the case of “Fresolimumab: a “pan” TGF-β antibody capable of neutralizing all human isoforms of TGF-β”, the adverse events entry in [11] (human, in vivo) was “bleeding and anemia issues”. Moreover, the clinical anti-fibrotic efficacy entry in series [11] (scleroderma patients) was “clear clinical anti-fibrotic efficacy”. The “epithelial hyperplasia of the gingiva, bladder and nasal turbinate epithelium” value in [12] was “induce an epithelial hyperplasia”.
